Where “and” joins values, the source holds several entries; their conditions need not be identical. Equal entries are not always repeated. Calls of active or inactive are those of the source.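 The calls were made as follows: active = compounds raising protection with a fitted AC50 no more than tenfold their highest valid tested dose; inconclusive = flat curve with partial protection, or unreliable curve fit; inactive = the rest.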
How the values were obtained:
[1] = beta-cell survival under cytokine stress – INS-1E, ATP luminescence, dry powder, dose response (AID 488844); conditions: INS-1E cytokine-induced death rescue, ATP luminescence, 48 h
[2] = system: INS-1E cytokine-induced death rescue, ATP luminescence, 48 h; experiment: as above

Row | SMILES | protection from cytokine death ([1]; at 26 µM (top of the series)) | further results
1 | COc1ccc(S(=O)(=O)N(C)C[C@@H]2Oc3ccc(NC(=O)Nc4cccc5ccccc45)cc3C(=O)N([C@@H](C)CO)C[C@H]2C)cc1 | -13.2% (inactive) | 
2 | C[C@@H]1CN([C@@H](C)CO)C(=O)c2cccc(NC(=O)Nc3cccc4ccccc34)c2O[C@H]1CN(C)C(=O)Nc1ccccc1 |  | protection from cytokine death ([1]; at 23.5 µM (top of the series)): -1.63% (inactive)
3 | C[C@H]1CN([C@@H](C)CO)C(=O)c2cccc(NC(=O)NC3CCCCC3)c2O[C@@H]1CN(C)S(C)(=O)=O | -7.31% (inactive) | 
4 | Cc1noc(C)c1NC(=O)N(C)C[C@@H]1Oc2c(NC(=O)Nc3cccc4ccccc34)cccc2C(=O)N([C@@H](C)CO)C[C@H]1C | -14.9% (inactive) | 
5 | COc1ccc(S(=O)(=O)N(C)C[C@@H]2Oc3c(NC(=O)c4ccc(-c5nccs5)cc4)cccc3C(=O)N([C@@H](C)CO)C[C@H]2C)cc1 | 12.6% (inactive) | 
6 | COc1ccc(S(=O)(=O)N(C)C[C@@H]2Oc3c(NC(=O)c4cccc5ccccc45)cccc3C(=O)N([C@@H](C)CO)C[C@H]2C)cc1 | 1.13% (inactive) | 
7 | C[C@@H]1CN([C@@H](C)CO)C(=O)c2cccc(NC(=O)Nc3cccc4ccccc34)c2O[C@H]1CN(C)S(=O)(=O)c1ccc2c(c1)OCCCO2 | 25.8% (inactive) | 
8 | COc1ccc(S(=O)(=O)N(C)C[C@@H]2Oc3c(NC(=O)Nc4ccc(C(F)(F)F)cc4)cccc3C(=O)N([C@@H](C)CO)C[C@H]2C)cc1 | 7.51% (inactive) | 
9 | C[C@@H]1CN([C@@H](C)CO)C(=O)c2cccc(NC(=O)Nc3cccc4ccccc34)c2O[C@H]1CN(C)S(=O)(=O)c1cccc(F)c1 | -13.6% (inactive) | 
10 | COc1ccc(S(=O)(=O)N(C)C[C@@H]2Oc3c(NC(=O)c4cnccn4)cccc3C(=O)N([C@@H](C)CO)C[C@H]2C)cc1 | 6.69% (inactive) | 
11 | C[C@@H]1CN([C@@H](C)CO)C(=O)c2cccc(NC(=O)Nc3cccc4ccccc34)c2O[C@H]1CN(C)S(=O)(=O)c1ccccc1 | 16.5% (inactive) | 
12 | Cc1ccc(S(=O)(=O)N(C)C[C@H]2Oc3c(NC(=O)Nc4cccc5ccccc45)cccc3C(=O)N([C@@H](C)CO)C[C@@H]2C)cc1 | -9.39% (inactive) | 
13 | COc1ccc(S(=O)(=O)N(C)C[C@@H]2Oc3c(NC(=O)Nc4cccc5ccccc45)cccc3C(=O)N([C@H](C)CO)C[C@@H]2C)cc1 | 13.8% (inactive) | 
14 | COc1ccc(S(=O)(=O)N(C)C[C@@H]2Oc3c(NC(=O)Nc4cccc5ccccc45)cccc3C(=O)N([C@@H](C)CO)C[C@H]2C)cc1OC | 34.5% (inactive) | 
15 | COc1ccc(S(=O)(=O)N(C)C[C@@H]2Oc3c(NC(=O)C4CCOCC4)cccc3C(=O)N([C@@H](C)CO)C[C@H]2C)cc1 |  | protection from cytokine death ([1]; at 23.5 µM (top of the series)): 6.47% (inactive)
16 | COc1ccc(S(=O)(=O)N(C)C[C@@H]2Oc3c(NC(=O)Nc4ccccc4)cccc3C(=O)N([C@@H](C)CO)C[C@H]2C)cc1 |  | AC50 [2]: > 26 µM (inactive)
17 | C[C@@H]1CN([C@@H](C)CO)C(=O)c2cccc(NC(=O)Nc3cccc4ccccc34)c2O[C@H]1CN(C)C(=O)NC1CCCCC1 | -35.9% (inactive) | 
18 | COc1ccc(S(=O)(=O)N(C)C[C@@H]2Oc3c(NC(=O)Nc4c(C)noc4C)cccc3C(=O)N([C@@H](C)CO)C[C@H]2C)cc1 | -2.07% (inactive) | 
19 | C[C@@H]1CN([C@@H](C)CO)C(=O)c2cccc(NC(=O)Nc3cccc4ccccc34)c2O[C@H]1CN(C)S(=O)(=O)c1cccs1 | -2.28% (inactive) | 
20 | CNC[C@@H]1Oc2c(NC(=O)Nc3cccc4ccccc34)cccc2C(=O)N([C@@H](C)CO)C[C@H]1C | -5.76% (inactive) | 
21 | COc1ccc(S(=O)(=O)N(C)C[C@@H]2Oc3c(NS(=O)(=O)c4ccccc4)cccc3C(=O)N([C@@H](C)CO)C[C@H]2C)cc1 | 4.09% (inactive) | 
22 | C[C@@H]1CN([C@@H](C)CO)C(=O)c2cccc(NC(=O)Nc3cccc4ccccc34)c2O[C@H]1CN(C)S(=O)(=O)c1ccc(OC(F)(F)F)cc1 | -128% (inactive) | 
23 | COc1ccccc1S(=O)(=O)N(C)C[C@@H]1Oc2c(NC(=O)Nc3cccc4ccccc34)cccc2C(=O)N([C@@H](C)CO)C[C@H]1C | -1.88% (inactive) | 
24 | COc1ccc(NC(=O)N(C)C[C@@H]2Oc3c(NC(=O)Nc4cccc5ccccc45)cccc3C(=O)N([C@@H](C)CO)C[C@H]2C)cc1 | -28.7% (inactive) | 
25 | C[C@@H]1CN([C@@H](C)CO)C(=O)c2cccc(NC(=O)Nc3cccc4ccccc34)c2O[C@H]1CN(C)CC1CC1 | -29.1% (inactive) | 

Row | SMILES | protection from cytokine death ([1]; at 26 µM (top of the series)) | further results
26 | C[C@@H]1CN([C@@H](C)CO)C(=O)c2cccc(NC(=O)Nc3cccc4ccccc34)c2O[C@H]1CN(C)C(=O)Nc1ccc2c(c1)OCO2 | -28.7% (inactive) | 
27 | COc1ccc(S(=O)(=O)N(C)C[C@@H]2Oc3c(NC(=O)NC(C)C)cccc3C(=O)N([C@@H](C)CO)C[C@H]2C)cc1 | -1.33% (inactive) | 
28 | COc1ccc(NC(=O)Nc2cccc3c2O[C@@H](CN(C)S(=O)(=O)c2ccc(OC)cc2)[C@H](C)CN([C@@H](C)CO)C3=O)cc1 | 13.4% (inactive) | 
29 | COc1ccc(S(=O)(=O)Nc2cccc3c2O[C@@H](CN(C)S(=O)(=O)c2ccc(OC)cc2)[C@H](C)CN([C@@H](C)CO)C3=O)cc1 | -0.665% (inactive) | 
30 | C[C@@H]1CN([C@@H](C)CO)C(=O)c2cccc(NC(=O)Nc3cccc4ccccc34)c2O[C@H]1CN(C)S(=O)(=O)c1ccc2c(c1)OCCO2 |  | AC50 [2]: 1.62 µM and 4.81 µM
31 | COc1ccc(S(=O)(=O)N(C)C[C@@H]2Oc3c(NC(=O)NC4CCCCC4)cccc3C(=O)N([C@@H](C)CO)C[C@H]2C)cc1 | 7.69% (inactive) | 
32 | COc1ccc(S(=O)(=O)N(C)C[C@@H]2Oc3c(cccc3N(C)C)C(=O)N([C@@H](C)CO)C[C@H]2C)cc1 |  | protection from cytokine death ([1]; at 23.5 µM (top of the series)): -5.24% (inactive)
33 | C[C@@H]1CN([C@@H](C)CO)C(=O)c2cccc(NC(=O)Nc3cccc4ccccc34)c2O[C@H]1CN(C)S(C)(=O)=O | -4.98% (inactive) | 
34 | C[C@@H]1CN([C@@H](C)CO)C(=O)c2cccc(NC(=O)Nc3cccc4ccccc34)c2O[C@H]1CN(C)S(=O)(=O)c1ccc2c(c1)oc(=O)n2C | 4.91% (inactive) | 
35 | N#Cc1ccc2cc(Br)c(C(F)(F)P(=O)(O)O)cc2c1 | -34.9% (inactive) | 
36 | COc1ccc(S(=O)(=O)N(C)C[C@@H]2Oc3c(NC(=O)c4ccncc4)cccc3C(=O)N([C@@H](C)CO)C[C@H]2C)cc1 | 0.628% (inactive) | 
37 | C[C@@H]1CN([C@@H](C)CO)C(=O)c2cccc(NC(=O)Nc3cccc4ccccc34)c2O[C@H]1CN(C)S(=O)(=O)c1ccc2c(n1)N(C)CCO2 | 22.7% (inactive) | 
38 | C[C@@H]1CN([C@@H](C)CO)C(=O)c2cccc(NC(=O)Nc3cccc4ccccc34)c2O[C@H]1CN(C)C(=O)Nc1ccc(F)cc1 | -27.4% (inactive) | 
39 | COc1ccc(S(=O)(=O)N(C)C[C@@H]2Oc3c(NS(=O)(=O)c4cn(C)cn4)cccc3C(=O)N([C@@H](C)CO)C[C@H]2C)cc1 | -12.2% (inactive) | 
40 | C[C@@H]1CN([C@@H](C)CO)C(=O)c2cccc(NC(=O)Nc3cccc4ccccc34)c2O[C@H]1CN(C)S(=O)(=O)c1cn(C)cn1 | -7.7% (inactive) | 
41 | COc1ccc(S(=O)(=O)N(C)C[C@@H]2Oc3c(NC(=O)c4nc5ccccc5s4)cccc3C(=O)N([C@@H](C)CO)C[C@H]2C)cc1 | -19.4% (inactive) | 
42 | COc1ccc(S(=O)(=O)N(C)C[C@@H]2Oc3c(NS(C)(=O)=O)cccc3C(=O)N([C@@H](C)CO)C[C@H]2C)cc1 | -4.24% (inactive) | 
43 | COc1ccc(S(=O)(=O)N(C)C[C@@H]2Oc3c(NC(=O)C4CCCCC4)cccc3C(=O)N([C@@H](C)CO)C[C@H]2C)cc1 | -8.99% (inactive) | 
44 | C[C@@H]1CN([C@@H](C)CO)C(=O)c2cccc(NC(=O)Nc3cccc4ccccc34)c2O[C@H]1CN(C)S(=O)(=O)c1ccccc1F | -7.82% (inactive) | 
45 | COc1ccc(S(=O)(=O)N(C)C[C@@H]2Oc3c(NC(=O)Nc4ccc5c(c4)OCO5)cccc3C(=O)N([C@@H](C)CO)C[C@H]2C)cc1 | 9.8% (inactive) | 
46 | COc1ccc(S(=O)(=O)N(C)C[C@@H]2Oc3c(NC(=O)C4CC4)cccc3C(=O)N([C@@H](C)CO)C[C@H]2C)cc1 |  | protection from cytokine death ([1]; at 23.5 µM (top of the series)): 1.51% (inactive)
47 | COc1ccc(S(=O)(=O)N(C)C[C@@H]2Oc3c(NS(=O)(=O)c4ccc(F)cc4)cccc3C(=O)N([C@@H](C)CO)C[C@H]2C)cc1 | 8.48% (inactive) | 
48 | Cc1ccc(S(=O)(=O)N(C)C[C@@H]2Oc3c(NC(=O)Nc4cccc5ccccc45)cccc3C(=O)N([C@H](C)CO)C[C@H]2C)cc1 |  | AC50 [2]: > 23.5 µM (inactive)
49 | C[C@@H]1CN([C@@H](C)CO)C(=O)c2cccc(NC(=O)Nc3cccc4ccccc34)c2O[C@H]1CN(C)C(=O)Nc1ccc(C(F)(F)F)cc1 |  | protection from cytokine death ([1]; at 23.5 µM (top of the series)): -33.2% (inactive)
50 | C[C@@H]1CN([C@@H](C)CO)C(=O)c2cccc(NS(=O)(=O)c3ccccc3)c2O[C@H]1CN(C)Cc1ccc(C(F)(F)F)cc1 | -9.86% (inactive) | 
